Among the data in ChEMBL document CHEMBL1157550, “Incorporation of fluorinated phenylalanine generates highly specific inhibitor of proteasome's chymotrypsin-like sites” (J Med Chem, 2010) are Activity values, retold here.

Test [1] has as its target Proteasome subunit beta type-5 (Homo sapiens) (UniProt P28074). As to the kind of experiment: Inhibition of 26S proteasome beta 5 in human HEK293 cell lysate assessed as residual activity at 1 uM after 1 hr.
For test [2], the target named is T1, Proteasome component C5 (Homo sapiens) (UniProt P20618).
T1 sequence (whole entry): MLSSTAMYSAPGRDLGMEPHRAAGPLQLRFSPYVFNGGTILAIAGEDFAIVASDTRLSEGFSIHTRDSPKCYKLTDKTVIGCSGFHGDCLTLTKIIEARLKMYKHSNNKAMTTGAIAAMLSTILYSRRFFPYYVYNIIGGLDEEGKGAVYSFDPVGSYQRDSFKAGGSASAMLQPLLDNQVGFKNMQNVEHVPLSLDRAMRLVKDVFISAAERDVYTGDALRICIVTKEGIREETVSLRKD
As to the kind of experiment: Inhibition of 26S proteasome beta 1 in human HEK293 cell lysate assessed as residual activity at 3 uM after 1 hr. It is filed as cell-free.

Test [3] addresses Proteasome subunit beta type-5 (Homo sapiens) (UniProt P28074). The test is described as follows: Inhibition of 26S proteasome beta 5 in human HEK293 cell lysate assessed as residual activity at 3 uM after 1 hr.
For test [4], the target named is Proteasome Macropain subunit (Homo sapiens) (UniProt P49721). The test is described as follows: Inhibition of 26S proteasome beta 2 in human HEK293 cell lysate assessed as residual activity at 0.03 uM after 1 hr. It is filed as cell-free.
Proteasome Macropain subunit (Homo sapiens), sequence (P49721 whole entry): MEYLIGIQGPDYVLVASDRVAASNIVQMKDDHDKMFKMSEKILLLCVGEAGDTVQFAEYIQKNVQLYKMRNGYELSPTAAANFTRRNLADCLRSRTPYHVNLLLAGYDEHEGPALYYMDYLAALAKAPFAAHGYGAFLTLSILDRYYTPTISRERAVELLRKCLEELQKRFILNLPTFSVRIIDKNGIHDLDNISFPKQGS
Test [5] has as its target T1, Proteasome component C5 (Homo sapiens). The test is described as follows: Inhibition of 26S proteasome beta 1 in human HEK293 cell lysate assessed as residual activity at 1 uM after 1 hr. It is filed as cell-free.
Test [6] has the same target. As to the kind of experiment: Inhibition of 26S proteasome beta 1 in human HEK293 cell lysate assessed as residual activity at 0.03 uM after 1 hr. It is filed as cell-free.
For test [7] the target is unchanged. As to the kind of experiment: Inhibition of 26S proteasome beta 1 in human HEK293 cell lysate assessed as residual activity at 0.11 uM after 1 hr. Type of test: cell-free.
The target in test [8] is Proteasome Macropain subunit (Homo sapiens) (UniProt P49721). As to the kind of experiment: Inhibition of 26S proteasome beta 2 in human HEK293 cell lysate assessed as residual activity at 0.11 uM after 1 hr. Type of test: cell-free.
In test [9] the target is T1, Proteasome component C5 (Homo sapiens). The test is described as follows: Inhibition of 26S proteasome beta 1 in human HEK293 cell lysate assessed as residual activity at 9 uM after 1 hr. Type of test: cell-free.
For test [10], the target named is Proteasome subunit beta type-5 (Homo sapiens) (UniProt P28074). The test is described as follows: Inhibition of 26S proteasome beta 5 in human HEK293 cell lysate assessed as residual activity at […] after 1 hr.
Proteasome subunit beta type-5 (Homo sapiens), sequence (P28074 whole entry, looked up): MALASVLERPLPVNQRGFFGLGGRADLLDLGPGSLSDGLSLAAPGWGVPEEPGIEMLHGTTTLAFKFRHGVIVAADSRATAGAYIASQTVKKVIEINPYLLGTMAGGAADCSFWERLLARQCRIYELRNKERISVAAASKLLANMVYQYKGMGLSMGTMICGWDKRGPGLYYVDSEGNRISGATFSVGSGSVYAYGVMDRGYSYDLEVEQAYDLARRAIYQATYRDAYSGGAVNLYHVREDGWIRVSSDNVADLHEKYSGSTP
Test [11] addresses T1, Proteasome component C5 (Homo sapiens). The test is described as follows: Inhibition of 26S proteasome beta 1 in human HEK293 cell lysate assessed as residual activity at […] after 1 hr. It is filed as cell-free.
In test [12] the target is Proteasome Macropain subunit (Homo sapiens) (UniProt P49721). The test is described as follows: Inhibition of 26S proteasome beta 2 in human HEK293 cell lysate assessed as residual activity at 3 uM after 1 hr. It is filed as cell-free.
Test [13] has as its target Proteasome subunit beta type-5 (Homo sapiens) (UniProt P28074). As to the kind of experiment: Inhibition of 26S proteasome beta 5 in human HEK293 cell lysate assessed as residual activity at 9 uM after 1 hr.
In test [14] the target is Proteasome Macropain subunit (Homo sapiens) (UniProt P49721). The test is described as follows: Inhibition of 26S proteasome beta 2 in human HEK293 cell lysate assessed as residual activity at 9 uM after 1 hr. Type of test: cell-free.
In test [15] the target is Proteasome subunit beta type-5 (Homo sapiens) (UniProt P28074). The test is described as follows: Inhibition of 26S proteasome beta 5 in human HEK293 cell lysate assessed as residual activity at 0.11 uM after 1 hr.
The target of test [16] is Proteasome Macropain subunit (Homo sapiens) (UniProt P49721). As to the kind of experiment: Inhibition of 26S proteasome beta 2 in human HEK293 cell lysate assessed as residual activity at 1 uM after 1 hr. It is filed as cell-free.
In test [17] the target is Proteasome subunit beta type-5 (Homo sapiens) (UniProt P28074). The test is described as follows: Inhibition of 26S proteasome beta 5 in human HEK293 cell lysate assessed as residual activity at 0.03 uM after 1 hr.
Test [18] deals with Proteasome Macropain subunit (Homo sapiens) (UniProt P49721). As to the kind of experiment: Inhibition of 26S proteasome beta 2 in human HEK293 cell lysate assessed as residual activity at […] after 1 hr. It is filed as cell-free.

Molecules are shown by their SMILES.

`CC1=CC(C)=[N+]2C1=C(CCCCc1cn([C@@H](Cc3ccccc3)C(=O)N[C@@H](Cc3ccccc3)C(=O)N[C@@H](Cc3c(F)c(F)c(F)c(F)c3F)C(=O)N[C@@H](CC(C)C)C(=O)[C@@]3(C)CO3)nn1)c1c(C)cc(C)n1[B-]2(F)F`: the Activity in test [1] was 25.3%; in [2] it was 120%; in test [3], 18%; in test [4], 117%; in test [5], 107%; in test [6] it was 101%. Besides, the Activity in test [7] turned out to be 111%; in [8] it was 134%; in test [9], 100%; in test [10] it was 45.8%; in [11], 98.4%; in test [12], 141%. For the same compound, the Activity was 8.3% in test [13]; 102% in [14]; 76.5% in [15]; 124% in test [16]; 89.7% in [17]; 106% in test [18].
